# Measured values as given in patent US20160355782A1, “METHOD FOR ENHANCING DIFFERENTIATION OF DOPAMINERGIC NEURONS” (Buddhist Tzu Chi Medical Foundation, priority 2015, published 2016).
# How the values were obtained:
# VM precursor cultures [1] = assay: Real-time RT-PCR analysis of VM precursor cultures; assay type: cell-based, rat; conditions: 1.25 mM SB, 3 days
# VM of E16.5 rat embryos = assay: In vivo DA neuron differentiation in VM of rat embryos (immuno-histochemistry)
# Protocol: The pregnant rats on day 12.5 of gestation were intra-peritoneally injected with saline or 10 μg/kg UCN every 24 hours for 3 days (FIGS. 7H & 7I) or 4 days (FIGS. 7A, 7B, & 7E-7G) before sacrifice. FIG. 7A is an image of immuno-staining against TH of rat E16.5 mesencephalon. FIG. 7B is cell counting analysis of TH^+ cells in the VM of E16.5 saline and UCN-treated embryos (**p<0.01 compared with saline group). […] FIGS. 7H and 7I show histone H3 acetylation (H) and Nurr1 recruitments (I) at the TH promoter by ChIP analyses which were performed with chromatin prepared from E15.5 VM tissue of saline or UCN-treated embryos (*p<0.05; **p<0.01 compared with saline groups). Con: control medium.
# For immuno-histochemistry, rat embryos were perfused with 4% paraformaldehyde, cryopreserved with 30% sucrose in PBS overnight, embedded in Tissue Tek OCT compound (Sakura Finetek, Torrance, Calif.), and then frozen at −80° C. For Nurr1 staining, the embryos were perfused with 4% paraformaldehyde/0.15% picric acid followed by soaking in the same solution overnight at 4° C. Coronal sections (16 μm thick) were blocked with 2% FBS and 3% normal goat or normal donkey serum for 1 h at room temperature, and subsequently incubated with primary antibodies overnight at room temperature. Primary antibodies were rabbit anti-Lmx1b (1:3000), guinea-pig anti-Lmx1b (1:1500), rabbit anti-UCN (1:200), goat anti-CRHR1 (1:100), rabbit anti-CRHR2 (1:250), mouse anti-Nurr1 (1:100), rabbit anti-Nurr1 (1:100), and mouse anti-TH (1:2000). After washing with PBS, secondary antibodies conjugated to the FITC or rhodamine were applied to sections for 1 h. Sections were examined with fluorescent microscope or confocal microscope. Quantitative cell counts were performed in every third section through the entire A9-A10 populations in 5-10 embryos per condition.
# [2] = tested on: Nurr1-transduced cortical NPCs; assay: Real-time RT-PCR of DA phenotype genes in Nurr1-transduced cortical NPCs; assay type: cell-based, rat; conditions: 0.5 μM UCN, 3 days
# Protocol: TH promoter assay or lenti-virial transductions were carried out at 60%˜70% cell confluences (usually for 3 days) as described below. Cell differentiation was induced for 3 to 5 days by switching to mitogens-free DMEM/F12/N2 medium in the presence of 0.5 μM UCN. Differentiation medium was changed every other day.
# (§1) For lenti-viral transduction, E13 cortical NPCs were incubated with lenti-viruses (25 multiplicity of infection) expressing Nurr1 or GFP containing poly-brene (hexadimethrine bromide, 1 μg/mL, Sigma-Aldrich) for 24 hours. After 1 day of further cell expansion in the presence of the mitogens, cells were induced to differentiate.
# Total RNA was extracted from VM tissues or cultured VM precursors with TRIzol® reagent (Invitrogen). One-step real-time RT-PCR analysis was performed to determine the expression of genes (Power SYBR® Green RNA-to-CT™ 1-step kit, Applied Biosystems, Foster City, Calif.). Threshold cycle (CO value for each test gene was normalized to the Ct value for the β-actin control from the same RNA preparations. The ratio of transcription of each gene was calculated as 2^−(ΔCt), where ΔCt is the difference Cr (test gene)−Ct (β-actin). The primers used herein are listed in Table 1.
# [3] = tested on: Nurr1-transduced cortical NPCs; assay: DA uptake assay in Nurr1-transduced cortical NPCs; assay type: cell-based, rat; conditions: 0.5 μM UCN, 4 days
# Protocol: as §1
# (§2) For DA uptake assay, cells were washed twice with warm Krebs-Ringer buffer (16 mM sodium phosphate, 119 mM NaCl, 4.7 mM KCl, 1.8 mM CaCl2, 1.2 mM MgSO4, 1.3 mM EDTA and 5.6 mM glucose, pH 7.4), and then incubated with 1 μM [^3H]-dopamine(DA)(60 Ci/mmol, PerkinElmer) in Krebs-Ringer buffer at 37° C. for 20 min. After washing with ice-cold Krebs-Ringer buffer, cells were collected in 1 N NaOH and radioactivity was counted with a liquid scintillation counter. Non-specific uptake was determined in parallel wells that received both the tritiated tracer and 10 μM mazindol. The specific [^3H] DA were calculated by subtracting the amount of radioactivity obtained in the presence of mazindol from that obtained in the absence of mazindol.
# VM precursor cultures [4] = assay: DA uptake assay in VM precursor cultures; assay type: cell-based, rat; conditions: 1 μM UCN, 4 days
# Protocol: as §2
# [5] = tested on: Nurr1 complexes in VM precursor cells; assay: Immuno-precipitation with anti-Nurr1 antibody in VM precursor cells; assay type: cell-based, rat; conditions: UCN, 24 hours
# Protocol: For immuno-precipitation, VM precursor cells were treated with UCN for 24 hours and then harvested with M-PER® Mammalian Protein Extraction Reagent (Pierce, Rockford, Ill.) containing 1 mM PMSF, 10 μg/mL aprotinin, 10 μg/mL leupeptin, and 5 μg/mL pepstatin A. The cytosolic lysates (250 μg of protein) were incubated with a rabbit anti-Nurr1 antibody (Santa Cruz Biotechnology) with gentle rocking overnight at 4° C. PureProteome™ protein G magnetic beads (Merck Millipore, Billerica, Mass.) were added (15 μL of suspension) and rotated for 3 h at 4° C. After washing the beads with ice-cold immuno-precipitation buffer (20 mM Tris, pH 7.5, 150 mM NaCl, 1 mM EDTA, 1 mM EGTA, 1% Triton X-100, 2.5 mM sodium pyrophosphate, 1 mM β-glycerolphosphate, 1 mM Na3VO4, 1 μg/mL leupeptin, 1 mM PMSF), immuno-precipitated proteins were eluted in sample buffer, and subjected to Western blot analyses with anti-MeCP2, -CoREST, -HDAC1, -Nurr1, -Foxa2, or -Pitx3 antibodies.
Molecule,TH mRNA expression (VM precursor cultures [1]),"proportion of TH+/Nurr1+ cells in the VM (VM of E16.5 rat embryos; UCN treated vs saline-treated embryos, E16.5)","number of ventral mesencephalic TH+ cells (VM of E16.5 rat embryos; pregnant rats, 10 μg/kg UCN i.p. every 24 hours for 4 days, E16.5 embryos)","Nurr1+ cell numbers in the VM (VM of E16.5 rat embryos; saline vs UCN-treated embryos, E16.5)",DAT gene expression [2],TH gene expression [2],VMAT2 gene expression [2],DA neuronal function as assessed by DA uptake [3],DAT-mediated specific DA uptake (VM precursor cultures [4]),amount of Foxa2 that precipitates with Nurr1 [5],interaction between Pitx3 and Nurr1 proteins [5]
"CCCC(=O)[O-].[Na+] [SB, sodium butyrate, reference compound]",markedly upregulated,–,–,–,–,–,–,–,–,–,–
Urocortin [UCN],–,significant proportion of the Nurr1+ cells differentiate into TH+ neurons,increased number,no significant difference,increased gene expression,increased gene expression,increased gene expression,increased DA neuronal function,significantly enhanced,markedly enhanced,not significantly altered
